Literature values in patent publication US6420361B1, “Soil pesticide” (priority 1999, dated 2002).

Q: Which “Solubility and stability in commonly used agricultural solvents or carriers” value does the source give for `CN1CSC(=S)N(C)C1` [TDTT, tetrahydro-3,5-dimethyl-2H-1,3,5-thiadiazine-2-thione] here?
A: not very soluble or stable

Q: And the “Concentration limit in liquid formulation” value (applied as a liquid formulation)?
A: less than 15 % by weight
